Experimental findings from patent US20100105772A1, “USE OF NOVEL LIPID MEDIATORS TO INHIBIT ANGIOGENESIS” (priority 2008, published 2010) are described below.

Format in all cases: in vivo, mice
The subject of one experiment is neutrophils. Kind of experiment: Neutrophil infiltration in suture-induced inflamed corneas (NIMP-R14 staining of cross-sections). The conditions noted are these: for neutrophils per section: n=3, mean±SEM. On the procedure:
ATLa or vehicle was subconjunctivally injected at 0 h and 48 h after suture placement. For each compound treatment, eyes were enucleated from a group of mice at 24 h, and another group at 72 h after suture placement (3 eyes per group). Cross-sections were stained with anti-neutrophil (NIMP-R14) or anti-macrophage (F4/80) Ab, and 12 sections were used to enumerate the respective leukocyte populations. Results represent the mean (±SEM) of 3 eyes per group (*P<0.05, **P<0.001 vs vehicle-treated group, t-test), and data are representative of two independent experiments.
The standard model for induction of inflammatory corneal NV is associated with development of intrastromal vessels in close association with a mixed-cell (primarily neutrophilic) infiltrate.^14,15 Three interrupted sutures (11-0 nylon, Sharpoint; Vanguard, Houston, Tex.) were placed intrastromally with two stromal incursions extending over 120° of the corneal circumference each to induce inflammatory corneal NV, which is also associated with significant LA, as described previously.^14 The corneas were followed by slit-lamp biomicroscopy for corneal NV development. NV was graded between 0 and 3, with increments of 0.5, using a grid system per each corneal quadrant based on the centripetal extent of the neovascular branches from the limbus. Scores for each quadrant then summed to derive the NV index (range 0 to 12) for each eye, as previously described.^14
(§1) BALB/c mice were randomized to receive ATLa, or vehicle (normal saline) by subconjunctival injection in a masked fashion after suture or hydron pellet placement. […] ATLa was synthesized as described previously.^20 The physical properties were monitored routinely via LC/MS/MS matching the reported biological and physical properties prior to analysis in present experiments.
(§2) Full thickness corneal tissue or 8 μm-frozen sections were fixed in acetone for 15 minutes at room temperature. […] Finally, the samples were covered with mounting medium (Vector Laboratories, Burlingame, Calif.) and analyzed by epifluorescence microscopy (Eclipse E800; Nikon, Tokyo, Japan). […]

Another experiment relates to mouse IL-1 beta. Kind of experiment: ELISA of IL-1 beta protein in homogenates of suture-induced inflamed corneas. The method, then:
FIG. 7. ATLa Regulates IL-1β. Mice were treated at Oh and 48 h after suture-placement with ATLa or vehicle. Whole corneas were excised at 72 h, and subsequently freeze-thawed 3 times. Cornea was then homogenized using a pellet pestile motor with additional protease inhibitors. Homogenates were centrifuged at 12,000 rpm for 5 minutes and the supernatant was assayed for mouse IL-1 beta via ELISA (eBioscience, USA) according to the manufacturer's instructions.
The standard model for induction of inflammatory corneal NV is associated with development of intrastromal vessels in close association with a mixed-cell (primarily neutrophilic) infiltrate.^14,15 Three interrupted sutures (11-0 nylon, Sharpoint; Vanguard, Houston, Tex.) were placed intrastromally with two stromal incursions extending over 120° of the corneal circumference each to induce inflammatory corneal NV, which is also associated with significant LA, as described previously.^14 The corneas were followed by slit-lamp biomicroscopy for corneal NV development. […]
as §1

Experiment [1] concerns suture-induced corneal NV (HA and LA). Kind of experiment: Suture-induced inflammatory corneal angiogenesis (slit-lamp NV score, blood and lymphatic vessel density). On the procedure: FIG. 5. Suture-induced Corneal HA is Reduced with Lipoxin. ATLa or vehicle was subconjunctivally injected every 48 h from 0 to 14 days after suture placement. A. In a masked fashion, corneal NV was scored biomicroscopically with a slit-lamp using a grid system. Values are expressed as the mean (±SEM) of 6 corneas. B. Whole corneal tissues were harvested on day 14 and double-stained with anti-CD31 (green) and anti-LYVE-1 (red) for epifluorescence microscopy (20× magnification). C. The density of blood vessels (CD31^high/LYVE-1^−) or lymphatic vessels (CD31^lowLYVE-1^high) covering the cornea was analyzed. Values are expressed as the mean (±SEM) of 6 corneas of per treatment group (**P<0.001 vs vehicle-treated group, t-test), and the data are representative of two independent experiments. […]
as §1, §2
To quantify corneal angiogenesis, digital pictures of corneal flat-mounts were taken using an image analysis system (Spot Image Analysis, Diagnostic Instruments, Sterling Heights, Mich.). The areas covered by CD31^high/LYVE-1^−-vessels (blood vessels) or CD31^lowLYVE-1^high vessels (lymphatics) were measured morphometrically using NIH Image J software (version 1.34s; http://rsb.info.nih.gov/ij). […]

In experiment [2] the test system is IL-1β-induced corneal HA and LA. Kind of experiment: Corneal micropocket assay with IL-1β pellets (vessel density). The note with it: IL-1β micropellet, day 7. The method, then:
FIG. 6. ATLa Regulate IL-1β- and VEGF-A-induced Corneal HA and LA. Hydron pellets containing IL-1β or VEGF-A were implanted into the corneas on day 0. ATLa or vehicle was subconjunctivally injected every 48 h from 0 to 7 days after pellet implantation (4 corneas per treatment, for each pellet-type). A. Slit-lamp examination was performed on day 7 and representative images are shown. B. The density of blood vessels (CD31^high/LYVE-1^−) or lymphatic vessels (CD31^lowLYVE-1^high) covering each cornea was analyzed. Values are expressed as the mean (±SEM) of each treatment group (4 corneas per group) and the data are representative of two independent experiments (*P<0.05 vs vehicle-treated group, t-test).
The corneal micropocket assay in mice and quantification of the resultant NV has been described previously.^16,17 In brief, 0.3 μl of hydron pellets (IFN Sciences, New Brunswick, N.J.) containing 30 ng of murine IL-1β (R&D Systems, Minneapolis, Minn.) or 200 ng of VEGF-A (gift from BRB Preclinical Repository, National Cancer Institute) were prepared and implanted into the corneal stroma of male BALB/c mice. After 7 days the animals were sacrificed and the corneas were harvested for quantitative analysis of HA and LA.
BALB/c mice were randomized to receive ATLa, or vehicle (normal saline) by subconjunctival injection in a masked fashion after suture or hydron pellet placement. […]

`COC(=O)CCC[C@H](O)[C@H](O)/C=C/C=C/C=C\C=C\[C@H](O)COc1ccc(F)cc1` [ATLa, 15-epi-16-(para-fluoro)-phenoxy-lipoxin A4 methyl ester]: the “inhibition of neutrophils recruitment into the inflamed corneas” value in the experiment on neutrophils (24 and 72 h after suture placement, 100 ng/10 μl subconjunctival at 0 h and 48 h, vs vehicle) is ~30%. Besides, the results for the neutrophils per section with neutrophils (24 h after suture placement) and with neutrophils (72 h after suture placement) were 53±1 cells/section and 34±5 cells/section, respectively. Further, the “IL-1 beta in corneas” value in the experiment on mouse IL-1 beta (ELISA of corneal homogenate supernatant, 72 h, treated at 0 h and 48 h, n=4) is 21.3 ± 0.8 pg/mL. The “decrease in IL-1β protein level” value in the experiment on mouse IL-1 beta (ELISA, 72 h after suture placement, vs vehicle-treated group) amounted to 70%. For the same molecule, the “angiogenic response (growth of corneal neovessels, slit lamp biomicroscopy)” value in experiment [1] (2-week time course, injection every 48 h, vs vehicle control) is listed as “significant suppression”. The “BV density (CD31high/LYVE-1−)” value in experiment [1] (day 14 after suture placement, n=6, mean±SEM) amounted to 8.26±0.63%. Further, the “density of lymphatic vessels (CD31low LYVE-1high)” value in experiment [1] (day 14 after suture placement, vs vehicle controls) is “not observed”. The molecule also returned a BV density in experiment [2] (n=4, mean±SEM) of 16.1±3.0%. Besides, in experiment [2] (vs vehicle), the “LA stimulated by IL-1β” value is recorded as “no significant reduction”.
